Measurements reported in patent US20230265151A1, “GIP/GLP1 CO-AGONIST COMPOUNDS” (priority 2020, published 2023).
Read-outs that look alike come from different tables or passages of the source.

Legend:
Assay type in all cases: cell-based
[1] = molecular target: T1, hGIPR (Homo sapiens, UniProt P48546); test: Functional cAMP formation (HTRF) in HEK-293 clonal cells expressing hGIPR, 0.1% bovine casein, without or with 1.0% human serum albumin
T1 construct: expressed in transfected cells
T1 sequence (P48546 22-466): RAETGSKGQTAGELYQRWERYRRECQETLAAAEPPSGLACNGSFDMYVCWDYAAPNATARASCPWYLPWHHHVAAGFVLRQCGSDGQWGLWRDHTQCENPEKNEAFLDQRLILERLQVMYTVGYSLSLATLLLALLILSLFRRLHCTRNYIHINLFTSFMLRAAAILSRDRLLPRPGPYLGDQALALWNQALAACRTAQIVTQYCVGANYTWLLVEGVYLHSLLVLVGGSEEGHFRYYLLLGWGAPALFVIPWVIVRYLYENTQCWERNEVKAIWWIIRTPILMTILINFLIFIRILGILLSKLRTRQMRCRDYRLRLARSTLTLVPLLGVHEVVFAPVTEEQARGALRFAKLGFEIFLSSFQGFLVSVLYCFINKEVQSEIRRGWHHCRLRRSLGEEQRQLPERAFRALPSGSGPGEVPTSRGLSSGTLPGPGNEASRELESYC
Procedure, shortened: (§1)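 Readings of the HTRF 665/620 nm ratio, which falls as cAMP rises, were converted to nM cAMP using a standard curve after 30 min peptide exposure at 37° C.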

[2] = molecular target: hGLP-1R (Homo sapiens, UniProt P43220); test: Functional cAMP formation (HTRF) in HEK-293 clonal cells expressing hGLP-1R, 0.1% bovine casein, without or with 1.0% human serum albumin; parameters: expressed in transfected cells; conditions: for EC50: geometric mean; for Emax: percent of maximal response to GLP-1(7-36)NH2
Sequence of hGLP-1R (P43220 24-463): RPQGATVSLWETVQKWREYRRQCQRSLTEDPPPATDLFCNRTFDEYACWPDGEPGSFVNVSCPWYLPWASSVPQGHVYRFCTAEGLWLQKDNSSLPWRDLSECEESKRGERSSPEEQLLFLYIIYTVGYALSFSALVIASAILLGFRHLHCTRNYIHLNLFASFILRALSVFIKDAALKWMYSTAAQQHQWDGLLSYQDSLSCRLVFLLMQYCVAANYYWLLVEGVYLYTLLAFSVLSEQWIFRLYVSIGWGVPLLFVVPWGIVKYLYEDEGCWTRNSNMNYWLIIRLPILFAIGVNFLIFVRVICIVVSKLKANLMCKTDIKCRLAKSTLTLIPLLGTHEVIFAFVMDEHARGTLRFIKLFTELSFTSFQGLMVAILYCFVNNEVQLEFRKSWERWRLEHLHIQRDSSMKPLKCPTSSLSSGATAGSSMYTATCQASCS
Procedure, shortened: as §1

[3] = molecular target: T2, hGCGR (Homo sapiens, UniProt P47871); test: Functional cAMP formation (HTRF) in HEK-293 clonal cells expressing hGCGR, 0.1% bovine casein, without or with 1.0% human serum albumin
T2 construct: expressed in transfected cells
T2 sequence (P47871 26-477): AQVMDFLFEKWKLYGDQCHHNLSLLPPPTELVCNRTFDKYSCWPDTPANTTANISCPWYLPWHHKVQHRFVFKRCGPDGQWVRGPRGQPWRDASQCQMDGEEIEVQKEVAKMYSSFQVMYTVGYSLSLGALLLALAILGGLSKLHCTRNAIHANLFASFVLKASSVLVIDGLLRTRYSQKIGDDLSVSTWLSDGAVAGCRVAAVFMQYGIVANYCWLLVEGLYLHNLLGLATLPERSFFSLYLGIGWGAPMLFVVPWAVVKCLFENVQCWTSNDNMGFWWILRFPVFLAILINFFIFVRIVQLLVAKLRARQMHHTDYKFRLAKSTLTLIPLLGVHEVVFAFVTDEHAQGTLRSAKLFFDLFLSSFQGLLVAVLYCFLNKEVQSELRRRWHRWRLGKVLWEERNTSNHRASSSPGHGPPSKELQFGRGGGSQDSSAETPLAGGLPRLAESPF
Procedure, shortened: as §1

[4] = HEK293, cAMP, 37° C., 0.1% bovine casein and 1.0% human serum albumin, percent of maximal response to GIP(1-42)NH2, read-out: hGIPR Emax, % ± SEM
[5] = HEK293, cAMP, 37° C., 0.1% bovine casein, arithmetic mean, read-out: hGLP-1R Emax, % ± SEM
[6] = cAMP, 37° C., 0.1% bovine casein (no human serum albumin), read-out: hGLP-1R EC50, nM (SEM, n)
[7] = cAMP, 37° C., 0.1% bovine casein (no human serum albumin), geometric mean, read-out: hGCGR EC50, nM (SEM, n)
[8] = cAMP, 37° C., 0.1% bovine casein and 1.0% human serum albumin, geometric mean (SEM, n), read-out: hGCGR EC50, nM (SEM, n)

## CC[C@H](C)[C@H](NC(=O)[C@H](CC(C)C)NC(=O)[C@](C)(Cc1ccc(O)cc1)NC(=O)[C@@H](CCC(=O)O)NC(=O)[C@@H](NC(=O)[C@H](Cc1ccccc1)NC(=O)[C@H](CCC(=O)O)NC(=O)C(C)(C)NC(=O)[C@H](CCC(N)=O)NC(=O)[C@H](C)NC(=O)[C@H](CCCCNC(=O)COCCOCCNC(=O)COCCOCCNC(=O)CC[C@H](NC(=O)CCCCCCCCCCCCC(=O)O)C(=O)O)NC(=O)[C@H](CCCN)NC(=O)[C@H](CC(=O)O)NC(=O)[C@H](CC(C)C)NC(=O)[C@](C)(CC(C)C)NC(=O)[C@@H](NC(=O)[C@H](CN)NC(=O)[C@H](Cc1ccc(O)cc1)NC(=O)[C@H](CC(=O)O)NC(=O)[C@H](CO)NC(=O)[C@@H](NC(=O)[C@](C)(Cc1ccccc1F)NC(=O)[C@@H](NC(=O)CNC(=O)[C@H](CCC(=O)O)NC(=O)C(C)(C)NC(=O)[C@@H](N)Cc1ccc(O)cc1)[C@@H](C)O)[C@@H](C)O)[C@@H](C)CC)[C@@H](C)CC)C(=O)N[C@@H](CCC(=O)O)C(=O)NCC(=O)NCC(=O)N[C@@H](CCCCNC(=O)COCCOCCNC(=O)COCCOCCNC(=O)CC[C@H](NC(=O)CCCCCCCCCCCCC(=O)O)C(=O)O)C(=O)N[C@@H](CO)C(=O)N[C@@H](CO)C(=O)NCC(=O)N[C@@H](C)C(=O)N1CCC[C@H]1C(=O)N1CCC[C@H]1C(=O)N1CCC[C@H]1C(=O)N[C@@H](CO)C(N)=O [Example 200]
[1]; HEK293, 0.1% bovine casein and 1.0% human serum albumin, 37° C., percent of maximal response to GIP(1-42)NH2, read-out: hGIPR Emax, % ± SEM
  Emax: 83.7%
[1]; HEK293, percent of maximal response to GIP(1-42)NH2, 37° C., 0.1% bovine casein, arithmetic mean, read-out: hGIPR Emax, % ± SEM
  Emax: 96.3 ± 2.76%
[2]; 0.1% bovine casein and 1.0% human serum albumin, 37° C., read-out: hGLP-1R EC50, nM (SEM, n)
  EC50: 26.6 nM
[2]; HEK293, 0.1% bovine casein and 1.0% human serum albumin, 37° C., read-out: hGLP-1R Emax, % ± SEM
  Emax: 97.4%
[3]; 0.1% bovine casein and 1.0% human serum albumin, 37° C., geometric mean, read-out: hGCGR EC50, nM (SEM, n)
  EC50: > 9950 nM
[3]; cAMP, incubated at 37° C., 0.1% bovine casein (no human serum albumin), geometric mean, read-out: hGCGR EC50, nM (SEM, n)
  EC50: > 9950 nM

## CC[C@H](C)[C@H](NC(=O)[C@H](CCCN)NC(=O)[C@H](CC(=O)O)NC(=O)[C@H](CC(C)C)NC(=O)[C@](C)(CC(C)C)NC(=O)[C@@H](NC(=O)[C@H](CO)NC(=O)[C@H](CCc1ccc(O)cc1)NC(=O)[C@H](CC(=O)O)NC(=O)[C@H](CO)NC(=O)[C@@H](NC(=O)[C@](C)(Cc1ccccc1F)NC(=O)[C@@H](NC(=O)CNC(=O)[C@H](CCC(=O)O)NC(=O)C(C)(C)NC(=O)[C@@H](N)Cc1ccc(O)cc1)[C@@H](C)O)[C@@H](C)O)[C@@H](C)CC)C(=O)N[C@@H](C)C(=O)N[C@@H](CCC(N)=O)C(=O)NC(C)(C)C(=O)N[C@@H](CCCCNC(=O)COCCOCCNC(=O)COCCOCCNC(=O)CC[C@H](NC(=O)CCCCCCCCCOc1ccc(C(=O)O)cc1)C(=O)O)C(=O)N[C@@H](Cc1ccccc1)C(=O)N[C@H](C(=O)N[C@H](CCC(=O)O)C(=O)N[C@@](C)(Cc1ccc(O)cc1)C(=O)N[C@@H](CC(C)C)C(=O)N[C@H](C(=O)N[C@@H](CCCCNC(=O)COCCOCCNC(=O)COCCOCCNC(=O)CC[C@H](NC(=O)CCCCCCCCCOc1ccc(C(=O)O)cc1)C(=O)O)C(=O)NCC(=O)NCC(=O)N1CCC[C@H]1C(=O)N[C@@H](CO)C(=O)N[C@@H](CO)C(=O)NCC(=O)N[C@@H](C)C(=O)N1CCC[C@H]1C(=O)N1CCC[C@H]1C(=O)N1CCC[C@H]1C(=O)N[C@@H](CO)C(N)=O)[C@@H](C)CC)[C@@H](C)CC [Example 332]
[1]; HEK293, read-out: hGIPR Emax, % ± SEM, cAMP, 37° C., 0.1% bovine casein and 1.0% human serum albumin, percent of maximal response to GIP(1-42)NH2
  Emax: 96.5%
[2]; HEK293, read-out: hGLP-1R Emax, % ± SEM, cAMP, 37° C., 0.1% bovine casein and 1.0% human serum albumin
  Emax: 116%
[2]; HEK293, read-out: hGLP-1R Emax, % ± SEM, cAMP, 37° C., 0.1% bovine casein, arithmetic mean
  Emax: 114%
[2]; hGLP-1R EC50, nM (SEM, n), cAMP, 37° C., 0.1% bovine casein (no human serum albumin)
  EC50: 0.263 nM
[3]; hGCGR EC50, nM (SEM, n), cAMP, 37° C., 0.1% bovine casein (no human serum albumin), geometric mean
  EC50: > 9950 nM
[3]; hGCGR EC50, nM (SEM, n), cAMP, 37° C., 0.1% bovine casein and 1.0% human serum albumin, geometric mean (SEM, n)
  EC50: > 9950 nM

## CC[C@H](C)[C@H](NC(=O)[C@H](CC(C)C)NC(=O)[C@](C)(Cc1ccc(O)cc1)NC(=O)[C@@H](CCC(=O)O)NC(=O)[C@@H](NC(=O)[C@H](Cc1ccccc1)NC(=O)[C@H](CCCCNC(=O)COCCOCCNC(=O)COCCOCCNC(=O)CC[C@H](NC(=O)CCCCCCCCCCCCC(=O)O)C(=O)O)NC(=O)C(C)(C)NC(=O)[C@H](CCC(N)=O)NC(=O)[C@H](C)NC(=O)[C@H](CCCCNC(=O)COCCOCCNC(=O)COCCOCCNC(=O)CC[C@H](NC(=O)CCCCCCCCCCCCC(=O)O)C(=O)O)NC(=O)[C@H](CCCN)NC(=O)[C@H](CC(=O)O)NC(=O)[C@H](CC(C)C)NC(=O)[C@](C)(CC(C)C)NC(=O)[C@@H](NC(=O)C(C)(C)NC(=O)[C@H](Cc1ccncc1)NC(=O)[C@H](CC(=O)O)NC(=O)[C@H](CO)NC(=O)[C@@H](NC(=O)[C@](C)(Cc1ccccc1F)NC(=O)[C@@H](NC(=O)CNC(=O)[C@H](CCC(=O)O)NC(=O)C(C)(C)NC(=O)[C@@H](N)Cc1ccc(O)cc1)[C@@H](C)O)[C@@H](C)O)[C@@H](C)CC)[C@@H](C)CC)C(=O)N[C@@H](CCCN)C(=O)NCC(=O)NCC(=O)N1CCC[C@H]1C(=O)N[C@@H](CO)C(=O)N[C@@H](CO)C(=O)NCC(=O)N[C@@H](C)C(=O)N1CCC[C@H]1C(=O)N1CCC[C@H]1C(=O)N1CCC[C@H]1C(=O)N[C@@H](CO)C(N)=O [Example 406]
[1]; [4]
  Emax: 87.3%
[1]; cAMP, 37° C., 0.1% bovine casein (no human serum albumin), geometric mean, read-out: hGIPR EC50, nM (SEM, n)
  EC50: 0.00896 nM
[2]; HEK293, cAMP, 37° C., 0.1% bovine casein and 1.0% human serum albumin, read-out: hGLP-1R Emax, % ± SEM
  Emax: 96%
[2]; [5]
  Emax: 98.5%
[2]; [6]
  EC50: 0.351 nM
[3]; [7]
  EC50: > 9950 nM
[3]; [8]
  EC50: > 9950 nM

## CCCCCCCCCCCC(=O)N[C@@H](CCC(=O)NCCOCCOCC(=O)NCCOCCOCC(=O)NCCCC[C@H](NC(=O)[C@H](CCCN)NC(=O)[C@H](CC(=O)O)NC(=O)[C@H](CC(C)C)NC(=O)[C@](C)(CC(C)C)NC(=O)[C@@H](NC(=O)[C@H](CO)NC(=O)[C@H](CCc1ccc(O)cc1)NC(=O)[C@H](CC(=O)O)NC(=O)[C@H](CO)NC(=O)[C@@H](NC(=O)[C@](C)(Cc1ccccc1F)NC(=O)[C@@H](NC(=O)CNC(=O)[C@H](CCC(=O)O)NC(=O)C(C)(C)NC(=O)[C@@H](N)Cc1ccc(O)cc1)[C@@H](C)O)[C@@H](C)O)[C@@H](C)CC)C(=O)N[C@@H](C)C(=O)N[C@@H](CCC(N)=O)C(=O)NC(C)(C)C(=O)N[C@@H](CCCCNC(=O)COCCOCCNC(=O)COCCOCCNC(=O)CC[C@H](NC(=O)CCCCCCCCCCC)C(=O)O)C(=O)N[C@@H](Cc1ccccc1)C(=O)N[C@H](C(=O)N[C@H](CCC(=O)O)C(=O)N[C@@](C)(Cc1ccc(O)cc1)C(=O)N[C@@H](CC(C)C)C(=O)N[C@H](C(=O)N[C@@H](CCC(=O)O)C(=O)NCC(=O)NCC(=O)N1CCC[C@H]1C(=O)N[C@@H](CO)C(=O)N[C@@H](CO)C(=O)NCC(=O)N[C@@H](C)C(=O)N1CCC[C@H]1C(=O)N1CCC[C@H]1C(=O)N1CCC[C@H]1C(=O)N[C@@H](CO)C(N)=O)[C@@H](C)CC)[C@@H](C)CC)C(=O)O [Example 323]
[1]; [4]
  Emax: 92.9%
[2]; [5]
  Emax: 92.6%
[2]; [6]
  EC50: 0.203 nM
[3]; [7]
  EC50: > 9950 nM
[3]; [8]
  EC50: > 9950 nM
